Experimental data as given in patent US20250084039A1, “4-SUBSTITUTED AMINOISOQUINOLINE DERIVATIVES” (Purdue Research Foundation, priority 2016, published 2025).
Like-named read-outs stand apart in the source and are kept apart here.

Legend:
MV4-11 [1] = assay: Proliferation inhibition screen at 100 nM; type: cell-based; conditions: 100 nM compound, FIG. 10
Description: (§1) To determine inhibition at 100 nM or 1 mM, 96-well plates were seeded the afternoon before treatment. Plates were then treated with compound diluted in dimethyl sulfoxide (DMSO) as well as a DMSO control the following day for 72 hours. After this time the plates were then treated with 10 μL of CellTiter-Blue Cell Viability Assay (Promega, Madison, WI) for 4 hours. Then the plates were read on a plate reader (Bio-Tek, Winooski, VT). Data was analyzed on Excel as a percent of the DMSO vehicle.
From these cell proliferation studies, MV4-11 appeared to be more sensitive to the compounds than the other cell lines (Table 6A). […] To identify group of compounds potently inhibiting cancer cell proliferation, a lower concentration of compounds (100 nM) were used to screen against MV4-11 (FIG. 10). From these experiments, potent amide compounds A7, A10, A15, A16, A18, A20, B15 and D30 (as indicated by ***, FIG. 10) were selected. […] Typically amides that contain basic amines are included in compound libraries to improve aqueous solubility but it appears that the presence of a basic amine in the side chain of the compounds also facilitated the actual inhibition of MV4-11 proliferation.

FLT3 = FLT3 (Homo sapiens (Human), UniProt P36888); assay: Reaction Biology HotSpot kinase assay; type: biochemical; conditions: 500 nM compound; for inhibition at 0.5 µM: read-out: % inhibition of FLT3 activity
Sequence of FLT3 (P36888 27-993): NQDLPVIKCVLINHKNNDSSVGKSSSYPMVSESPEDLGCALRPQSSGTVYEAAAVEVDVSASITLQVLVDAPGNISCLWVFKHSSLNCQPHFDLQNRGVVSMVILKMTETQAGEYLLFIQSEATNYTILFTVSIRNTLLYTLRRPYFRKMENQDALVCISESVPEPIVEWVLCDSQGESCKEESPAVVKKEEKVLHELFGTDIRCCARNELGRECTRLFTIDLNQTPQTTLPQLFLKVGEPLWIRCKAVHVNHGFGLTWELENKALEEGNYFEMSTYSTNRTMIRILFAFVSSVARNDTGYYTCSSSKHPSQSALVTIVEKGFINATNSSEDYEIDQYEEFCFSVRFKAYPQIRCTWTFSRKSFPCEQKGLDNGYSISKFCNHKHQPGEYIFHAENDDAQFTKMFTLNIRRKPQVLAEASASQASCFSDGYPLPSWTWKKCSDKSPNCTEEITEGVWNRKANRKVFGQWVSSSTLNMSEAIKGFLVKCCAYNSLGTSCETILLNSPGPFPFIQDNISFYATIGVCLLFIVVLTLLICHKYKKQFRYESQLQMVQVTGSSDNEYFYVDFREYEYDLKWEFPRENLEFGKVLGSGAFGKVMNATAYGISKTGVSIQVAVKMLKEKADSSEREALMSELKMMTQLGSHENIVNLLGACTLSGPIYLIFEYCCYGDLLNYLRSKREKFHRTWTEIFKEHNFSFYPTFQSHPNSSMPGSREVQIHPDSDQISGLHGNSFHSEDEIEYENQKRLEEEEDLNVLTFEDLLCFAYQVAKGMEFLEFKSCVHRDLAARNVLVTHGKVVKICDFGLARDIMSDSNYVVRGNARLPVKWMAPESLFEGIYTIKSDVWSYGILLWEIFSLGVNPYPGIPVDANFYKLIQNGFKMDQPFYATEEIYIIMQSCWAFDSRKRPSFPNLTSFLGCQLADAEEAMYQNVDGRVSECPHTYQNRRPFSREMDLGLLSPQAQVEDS
Description: (§2) The Reaction Biology Corporation (www.reactionbiology.com, Malvern, PA) HotSpot assay platform was used to measure kinase/inhibitor interactions exactly as previously described. Kinase and substrate were mixed in a buffer containing 20 mM HEPES pH 7.5, 10 mM MgCl2, 1 mM EGTA, 0.02% Brij35, 0.02 mg/mL BSA, 0.1 mM Na3VO4, 2 mM DTT and 1% DMSO. Single-dose of compounds (500 nM) were then added to each reaction mixture. After 20-minute incubation. ATP (Sigma) and [γ-^33P] ATP (Perkin Elmer) were added at a final total concentration of 100 μM for addition 2 hours at room temperature, followed by spotting onto P81 ion exchange cellulose chromatography paper (Whatman, Inc.). […] Percent remaining kinase activity of a vehicle (DMSO) containing kinase reaction was calculated for each kinase/inhibitor pair using Prism 5 (GraphPad).
as §2, with “1” for “DTT”, “incubation,” for “incubation.”

RET = RET (Homo sapiens (Human), UniProt P07949); assay: Reaction Biology HotSpot kinase assay; type: biochemical; conditions: 500 nM compound; read-out: Percentage kinase inhibition RET
Description: as §2
as §2, with “1” for “DTT”, “incubation,” for “incubation.”

TRKC = TRKC (Homo sapiens (Human), UniProt Q16288); assay: Reaction Biology HotSpot kinase assay; type: biochemical; conditions: 500 nM compound, 100 μM radiolabeled ATP
Sequence of TRKC (Q16288 32-839): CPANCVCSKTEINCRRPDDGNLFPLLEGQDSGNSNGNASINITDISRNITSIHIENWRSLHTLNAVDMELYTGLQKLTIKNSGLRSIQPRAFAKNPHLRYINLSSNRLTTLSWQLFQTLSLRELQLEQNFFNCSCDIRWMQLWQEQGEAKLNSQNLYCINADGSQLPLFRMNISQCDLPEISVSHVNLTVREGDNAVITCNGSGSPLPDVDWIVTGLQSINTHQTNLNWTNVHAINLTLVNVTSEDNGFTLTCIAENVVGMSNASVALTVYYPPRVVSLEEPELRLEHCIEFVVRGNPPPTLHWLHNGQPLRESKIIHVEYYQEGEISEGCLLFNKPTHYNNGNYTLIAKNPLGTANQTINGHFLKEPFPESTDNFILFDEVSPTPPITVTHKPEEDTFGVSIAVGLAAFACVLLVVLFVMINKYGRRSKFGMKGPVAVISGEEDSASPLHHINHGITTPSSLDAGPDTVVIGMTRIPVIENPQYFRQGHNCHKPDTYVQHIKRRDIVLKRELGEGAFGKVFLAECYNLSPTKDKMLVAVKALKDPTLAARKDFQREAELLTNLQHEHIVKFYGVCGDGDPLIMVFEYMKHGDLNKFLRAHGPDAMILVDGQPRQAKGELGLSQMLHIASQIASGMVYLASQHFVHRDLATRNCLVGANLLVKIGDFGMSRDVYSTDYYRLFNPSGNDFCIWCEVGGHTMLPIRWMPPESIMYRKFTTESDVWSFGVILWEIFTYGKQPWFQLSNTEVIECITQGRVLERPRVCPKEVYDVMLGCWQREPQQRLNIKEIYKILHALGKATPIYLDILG
Description: as §2
as §2, with “1” for “DTT”, “incubation,” for “incubation.”

c-kit = c-kit (Homo sapiens (Human), UniProt P10721); assay: Reaction Biology HotSpot kinase assay; type: biochemical; conditions: 500 nM compound, 100 μM radiolabeled ATP
Sequence of c-kit (P10721 26-976): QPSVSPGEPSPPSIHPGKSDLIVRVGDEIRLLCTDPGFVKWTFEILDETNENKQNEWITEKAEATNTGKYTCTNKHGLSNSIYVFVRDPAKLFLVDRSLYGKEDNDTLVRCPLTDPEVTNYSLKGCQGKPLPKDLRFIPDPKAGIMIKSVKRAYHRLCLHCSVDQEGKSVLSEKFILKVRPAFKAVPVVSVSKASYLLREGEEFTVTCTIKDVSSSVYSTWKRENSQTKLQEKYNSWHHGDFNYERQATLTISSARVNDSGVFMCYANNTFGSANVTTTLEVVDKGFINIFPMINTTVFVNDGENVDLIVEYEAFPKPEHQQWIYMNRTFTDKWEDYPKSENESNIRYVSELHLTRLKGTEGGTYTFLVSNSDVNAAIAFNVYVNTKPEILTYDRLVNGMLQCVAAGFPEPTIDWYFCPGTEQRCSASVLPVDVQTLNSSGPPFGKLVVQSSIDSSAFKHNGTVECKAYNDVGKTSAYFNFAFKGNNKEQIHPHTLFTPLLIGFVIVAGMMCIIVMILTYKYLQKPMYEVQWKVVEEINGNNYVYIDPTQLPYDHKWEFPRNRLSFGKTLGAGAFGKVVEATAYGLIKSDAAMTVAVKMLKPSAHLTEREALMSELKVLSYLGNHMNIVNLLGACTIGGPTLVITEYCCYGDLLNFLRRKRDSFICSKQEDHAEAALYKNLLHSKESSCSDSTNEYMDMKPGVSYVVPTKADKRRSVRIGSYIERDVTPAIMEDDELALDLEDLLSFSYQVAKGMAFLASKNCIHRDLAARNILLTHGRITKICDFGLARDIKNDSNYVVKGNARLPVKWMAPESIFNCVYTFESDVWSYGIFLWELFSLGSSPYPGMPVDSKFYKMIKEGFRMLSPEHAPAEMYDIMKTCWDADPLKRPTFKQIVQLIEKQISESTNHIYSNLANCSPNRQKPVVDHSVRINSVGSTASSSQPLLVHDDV
Description: as §2
as §2, with “1” for “DTT”, “incubation,” for “incubation.”

FGFR1 = FGFR1 (Homo sapiens (Human), UniProt P11362); assay: Reaction Biology HotSpot kinase assay; type: biochemical; conditions: 500 nM compound; read-out: Percentage kinase inhibition FGFR1
Sequence of FGFR1 (P11362 22-822): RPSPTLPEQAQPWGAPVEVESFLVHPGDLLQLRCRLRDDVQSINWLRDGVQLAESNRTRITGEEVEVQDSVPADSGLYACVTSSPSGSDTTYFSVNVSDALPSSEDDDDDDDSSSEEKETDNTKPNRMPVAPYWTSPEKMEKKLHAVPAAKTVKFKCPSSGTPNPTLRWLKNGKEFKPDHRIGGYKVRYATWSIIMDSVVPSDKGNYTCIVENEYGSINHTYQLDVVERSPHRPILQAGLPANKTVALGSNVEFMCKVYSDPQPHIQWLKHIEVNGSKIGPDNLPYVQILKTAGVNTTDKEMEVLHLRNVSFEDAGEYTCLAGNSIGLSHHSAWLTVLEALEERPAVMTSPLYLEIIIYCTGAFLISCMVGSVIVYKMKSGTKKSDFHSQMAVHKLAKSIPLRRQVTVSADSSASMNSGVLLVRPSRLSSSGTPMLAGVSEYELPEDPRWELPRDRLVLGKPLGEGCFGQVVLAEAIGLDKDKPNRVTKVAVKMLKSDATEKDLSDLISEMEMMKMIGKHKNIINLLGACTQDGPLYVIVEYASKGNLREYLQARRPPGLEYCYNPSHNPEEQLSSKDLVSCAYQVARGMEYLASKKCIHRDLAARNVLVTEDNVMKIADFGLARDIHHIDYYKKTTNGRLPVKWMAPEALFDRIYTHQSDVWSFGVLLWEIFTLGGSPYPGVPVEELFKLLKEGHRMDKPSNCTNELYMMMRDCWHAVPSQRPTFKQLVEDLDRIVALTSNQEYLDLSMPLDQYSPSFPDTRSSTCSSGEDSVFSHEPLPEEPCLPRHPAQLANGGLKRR
Description: as §2
as §2, with “1” for “DTT”, “incubation,” for “incubation.”

c-Src = c-Src (Homo sapiens (Human), UniProt P12931); assay: Reaction Biology HotSpot kinase assay; type: biochemical; conditions: 500 nM compound; read-out: Percentage kinase inhibition c-Src
Sequence of c-Src (P12931 whole entry, looked up): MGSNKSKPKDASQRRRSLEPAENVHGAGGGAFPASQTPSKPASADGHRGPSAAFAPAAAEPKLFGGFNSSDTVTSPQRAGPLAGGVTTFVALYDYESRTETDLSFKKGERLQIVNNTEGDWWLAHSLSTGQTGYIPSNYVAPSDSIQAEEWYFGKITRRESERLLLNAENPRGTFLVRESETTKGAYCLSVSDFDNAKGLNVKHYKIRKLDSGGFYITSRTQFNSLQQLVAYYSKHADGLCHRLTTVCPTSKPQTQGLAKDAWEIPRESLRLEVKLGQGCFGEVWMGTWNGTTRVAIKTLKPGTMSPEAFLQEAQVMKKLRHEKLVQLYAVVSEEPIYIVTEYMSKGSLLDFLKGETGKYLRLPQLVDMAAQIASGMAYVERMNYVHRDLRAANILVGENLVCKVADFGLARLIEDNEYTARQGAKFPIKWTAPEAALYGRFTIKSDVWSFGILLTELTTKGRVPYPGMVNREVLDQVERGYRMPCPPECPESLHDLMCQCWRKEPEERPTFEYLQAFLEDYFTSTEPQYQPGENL
Description: as §2
as §2, with “1” for “DTT”, “incubation,” for “incubation.”

MOLM14 = assay: IC50 determination (proliferation assay, CellTiter-Blue); type: cell-based
Description: (§3) Cell lines were seeded into 96-well plates the afternoon prior to treatment. Approximately 18 hours later, compounds were diluted in dimethyl sulfoxide (DMSO) and added to cells. Plates were incubated for 72 hours and cells viability determined with CellTiter-Blue Cell Viability Assay (Promega, Madison, WI). Plates were read after 4 additional hours of incubation at 37° C. using plate reader (Bio-Tek, Winooski. VT). Data was analyzed and graphed using GraphPad Prism Software (Graphpad. La Jolla, CA). […]

MV4-11 [2] = assay: as above; type: cell-based
Description: as §3

MV-4-11 = assay: Proliferation inhibition at single concentration (CellTiter-Blue); type: cell-based; conditions: 1 μM compound; for inhibition at 1 µM: Homo sapiens, MV4-11, read-out: Percent inhibition of proliferation MV-4-11
MCF-7 = assay: as above; type: cell-based; conditions: 1 μM compound; for inhibition at 1 µM: Homo sapiens, MCF7, read-out: Percent inhibition of proliferation MCF-7
Description: as §1, with “Plates” for “To determine inhibition at 100 nM or 1 mM, 96-well plates were seeded the afternoon before treatment. Plates”
(§4) Antiproliferative activities against AML cell line, MV4-11 (a FLT3-driven cell line) and three other solid tumors (MCF7, breast, HCT116, colon and HeLa) have been investigated (Tables 6A and 6B and FIG. 10).

HeLa = assay: as above; type: cell-based; conditions: 1 μM compound; for inhibition at 1 µM: Homo sapiens, HeLa, read-out: Percent inhibition of proliferation HeLa
Description: as §1, with “Plates” for “To determine inhibition at 100 nM or 1 mM, 96-well plates were seeded the afternoon before treatment. Plates”
as §4

HCT116 = assay: as above; type: cell-based; conditions: 1 μM compound; for inhibition at 1 µM: Homo sapiens, HCT-116, read-out: Percent inhibition of proliferation HCT116
K562 = assay: IC50 proliferation assay (Alamar Blue, 72 h); type: cell-based
Description: (§5) IC50 proliferation assay—Cell lines and primary cells were seeded into 96-well plates the afternoon prior to treatment. Approximately 18 hours later, compounds were semi-serially diluted in dimethyl sulfoxide (DMSO) and then growth medium, and added to cells. Plates were incubated for 72 hours prior to addition of Alamar Blue (Life Technologies, Carlsbad, CA). Plates were read after 4 additional hours of incubation at 37° C. using a Bio-Tek Synergy HT plate reader (Bio-Tek, Winooski, VT). Data was analyzed and graphed using GraphPad Prism Software (Graphpad, La Jolla. CA).
(§6) IC50 (proliferation inhibition) against leukemia cell lines MV4-11 and K562. […] MiaPaca-2 (Pancreatic cell line), HLY-1 (Lymphoma cell line), MV4-11 (AML, cell line) and K562 (CML cell line).

MV4-11 [3] = assay: IC50 proliferation assay (Alamar Blue, 72 h); type: cell-based; conditions: read-out: IC50 (proliferation inhibition) Cell line - MV4-11
Description: as §5, §6

NCI H1703 (NSCLC) = assay: Activity against lung cancer cell line; type: cell-based; conditions: Homo sapiens, NCI-H1703
FLT3 (ITD, F691L) = FLT3 (ITD, F691L) (Homo sapiens, UniProt P36888, F691L/ITD); assay: DiscoverX Kd Elect binding; conditions: read-out: Kd FLT3 (ITD, F691L)
Sequence of FLT3 (ITD, F691L) (P36888 whole entry, looked up, stated change not applied): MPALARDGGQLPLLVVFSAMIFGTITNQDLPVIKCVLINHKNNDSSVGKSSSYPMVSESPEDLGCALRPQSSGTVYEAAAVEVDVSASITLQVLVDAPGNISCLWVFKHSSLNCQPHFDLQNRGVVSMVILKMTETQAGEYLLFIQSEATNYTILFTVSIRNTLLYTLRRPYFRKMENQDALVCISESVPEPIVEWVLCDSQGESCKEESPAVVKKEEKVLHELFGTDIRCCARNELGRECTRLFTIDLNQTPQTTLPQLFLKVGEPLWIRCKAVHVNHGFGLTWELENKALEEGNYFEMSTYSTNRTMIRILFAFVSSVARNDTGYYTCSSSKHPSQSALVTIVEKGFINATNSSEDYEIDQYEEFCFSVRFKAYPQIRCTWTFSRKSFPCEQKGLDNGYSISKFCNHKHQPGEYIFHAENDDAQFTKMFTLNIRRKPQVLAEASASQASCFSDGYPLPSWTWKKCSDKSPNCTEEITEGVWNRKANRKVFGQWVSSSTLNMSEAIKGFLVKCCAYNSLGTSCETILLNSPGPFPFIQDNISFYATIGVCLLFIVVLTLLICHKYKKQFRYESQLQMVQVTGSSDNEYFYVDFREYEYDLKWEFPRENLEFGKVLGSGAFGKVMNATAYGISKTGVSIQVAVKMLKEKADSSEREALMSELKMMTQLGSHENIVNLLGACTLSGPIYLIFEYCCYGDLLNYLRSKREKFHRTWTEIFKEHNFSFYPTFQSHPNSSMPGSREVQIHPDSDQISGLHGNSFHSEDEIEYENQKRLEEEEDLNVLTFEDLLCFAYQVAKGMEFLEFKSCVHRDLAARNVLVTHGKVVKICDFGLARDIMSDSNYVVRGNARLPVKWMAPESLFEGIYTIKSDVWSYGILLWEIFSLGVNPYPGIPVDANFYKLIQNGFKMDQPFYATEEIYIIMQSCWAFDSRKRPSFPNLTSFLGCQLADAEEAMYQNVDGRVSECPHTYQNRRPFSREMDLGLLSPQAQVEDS

FLT3 (ITD) = FLT3 (ITD) (Homo sapiens, UniProt P36888, ITD); assay: DiscoverX Kd Elect binding; conditions: read-out: Kd FLT3 (ITD)
Sequence of FLT3 (ITD) (P36888 whole entry, looked up, change not shown): as the sequence (P36888 whole entry, looked up, stated change not applied) above
From the text: Although the current drugs on the market or in clinical trials are relatively successful in killing the AML leukemia cells, they currently are unable to deal with secondary mutations that occur after TKI treatment, such as FLT3 ([…]).

[4] = Homo sapiens, K562, 72 h, read-out: IC50 (proliferation inhibition) Cell line - K562
[5] = Homo sapiens, K562, Table 18, read-out: Inhibition of proliferation of K562 cell lines (CML)

Structure (SMILES)	inhibition at 0.5 µM (FLT3) [%]	inhibition at 0.5 µM (c-kit) [%]	inhibition at 0.5 µM (FGFR1) [%]	inhibition at 0.5 µM (c-Src) [%]	IC50 (MOLM14; Homo sapiens, MOLM-14) [nM]	IC50 (MV4-11 [2]; Homo sapiens, MV4-11) [nM]	IC50 (K562; [4]) [µM]	IC50 (K562; [5]) [µM]	IC50 (MV4-11 [3]; Homo sapiens, MV4-11, 72 h) [µM]	inhibition of MV4-11 proliferation in words (MV4-11 [1])	also measured
Nc1ncc2ccc(Cl)cc2c1C#Cc1ccc(C(=O)NCCCN2CCCCC2)cc1 [Compound A10]										potent	
CN(C)CC(O)CNC(=O)c1ccc(C#Cc2c(N)ncc3ccc(Cl)cc23)cc1 (stereo not shown) [Compound A15]										potent	
CCN(CC)CC(O)CNC(=O)c1ccc(C#Cc2c(N)ncc3ccc(Cl)cc23)cc1 (stereo not shown) [Compound A16]										potent	
COCCCNC(=O)c1ccc(C#Cc2c(N)ncc3ccc(Cl)cc23)cc1 [Compound A25]										inactive	
Cc1ccc(C(=O)NCc2ccc(OCCN(C)C)cc2)cc1C#Cc1c(N)ncc2ccc(Cl)cc12 [HSN315]											% inhibition of FLT3 activity (FLT3): 32%; IC50 (MOLM14): 523 ± 6.4 nM; IC50 (MV4-11 [2]): 549 ± 7.4 nM; proliferation inhibition in words, MV4-11 / AML (MV4-11 [2]): only moderate inhibitors; Percent inhibition of proliferation MV-4-11 (MV-4-11): 83%; Percent inhibition of proliferation MCF-7 (MCF-7): 100%; Percent inhibition of proliferation HeLa (HeLa): 100%; Percent inhibition of proliferation HCT116 (HCT116): 66%; IC50 (K562; 72 h, read-out: IC50 (proliferation inhibition) Cell line - K562): 0.203 µM; IC50 (K562; Table 18, read-out: Inhibition of proliferation of K562 cell lines (CML)): 0.203 ± 0.0001 µM; IC50 (MV4-11 [3]; 72 h): 0.54 µM
Cc1ccc2cnc(N)c(C#Cc3cc(C(=O)Nc4ccc(CN5CCN(C)CC5)c(C(F)(F)F)c4)ccc3C)c2c1 [HSN379, 3-((3-amino-6-methylisoquinolin-4-yl)ethynyl)-4-methyl-N-(4-((4-methylpiperazin-1-yl)methyl)-3-(trifluoromethyl)phenyl)benzamide]											IC50 (NCI H1703 (NSCLC)): 13 nM
Cc1ncc(C(=O)Nc2ccc(CN3CCN(C)CC3)c(C(F)(F)F)c2)cc1C#Cc1cnc(N)c2ncccc12 [HSN459, 5-((8-amino-1,7-naphthyridin-5-yl)ethynyl)-6-methyl-N-(4-((4-methylpiperazin-1-yl)methyl)-3-(trifluoromethyl)phenyl)nicotinamide]											Kd (FLT3 (ITD, F691L)): 0.017 µM; Kd (FLT3 (ITD)): 0.0056 µM; IC50 (NCI H1703 (NSCLC)): 38 nM

Further lines, with some results ahead:

inhibition at 0.5 µM (FLT3) [%]	inhibition at 0.5 µM (c-kit) [%]	inhibition at 0.5 µM (FGFR1) [%]	inhibition at 0.5 µM (c-Src) [%]	IC50 (MOLM14; Homo sapiens, MOLM-14) [nM]	IC50 (MV4-11 [2]; Homo sapiens, MV4-11) [nM]	IC50 (K562; [4]) [µM]	IC50 (K562; [5]) [µM]	IC50 (MV4-11 [3]; Homo sapiens, MV4-11, 72 h) [µM]	Structure (SMILES)	inhibition of MV4-11 proliferation in words (MV4-11 [1])	also measured
74	86	6	3	129 ± 8.2	154 ± 7.1	0.025	0.0257 ± 0.00031	0.154	CCN(CC)CCNC(=O)c1ccc(C)c(C#Cc2c(N)ncc3ccc(Cl)cc23)c1 [HSN247]		% inhibition of FLT3 activity (FLT3): 75%; inhibition at 0.5 µM (RET): 3%; inhibition at 0.5 µM (TRKC): 77%; proliferation inhibition in words, MV4-11 / AML (MV4-11 [2]): only moderate inhibitors; inhibition at 1 µM (MV-4-11): 58%; inhibition at 1 µM (MCF-7): 100%; inhibition at 1 µM (HeLa): 100%; inhibition at 1 µM (HCT116): 54%
73	93	9	23	180 ± 7.8	181 ± 6.5	0.007	0.007 ± 0.0001	0.225	Cc1ccc(C(=O)NCCN2CCCCC2)cc1C#Cc1c(N)ncc2ccc(Cl)cc12 [HSN248]		inhibition at 0.5 µM (RET): 52%; inhibition at 0.5 µM (TRKC): 83%; proliferation inhibition in words, MV4-11 / AML (MV4-11 [2]): only moderate inhibitors; inhibition at 1 µM (MV-4-11): 98%; inhibition at 1 µM (MCF-7): 100%; inhibition at 1 µM (HeLa): 100%; inhibition at 1 µM (HCT116): 76%
						0.759	0.913 ± 0.0001	0.759	Cc1ccc(C(=O)NCc2ccc(OCCN(C)C)cc2)cc1C#Cc1cc(N)nc2ccccc12 [HSN316, 3-((2-aminoquinolin-4-yl)ethynyl)-N-(4-(2-(dimethylamino)ethoxy)benzyl)-4-methylbenzamide]		
93	78	100	100	3.01 ± 0.1	3.09 ± 0.1	0.002	0.0024 ± 6e-05	0.003	Cc1ccc(C(=O)Nc2ccc(CN3CCN(C)CC3)c(C(F)(F)F)c2)cc1C#Cc1c(N)ncc2ccccc12 [HSN352, 3-((3-aminoisoquinolin-4-yl)ethynyl)-4-methyl-N-(4-((4-methylpiperazin-1-yl)methyl)-3-(trifluoromethyl)phenyl)benzamide]		
94	82	93	98	1.97 ± 0.1	3.45 ± 0.04	0.005	0.0052 ± 2e-05	0.003	Cc1ccc(C(=O)Nc2ccc(CN3CCN(C)CC3)c(C(F)(F)F)c2)cc1C#Cc1c(N)ncc2c(Cl)cccc12 [HSN353, 3-((3-amino-8-chloroisoquinolin-4-yl)ethynyl)-4-methyl-N-(4-((4-methylpiperazin-1-yl)methyl)-3-(trifluoromethyl)phenyl)benzamide]		
